The text below walks through data of patent publication US10227357B2, “Compounds and methods for kinase modulation, and indications therefor” (Plexxikon Inc., priority 2012, dated 2019).

Structures are written as SMILES.

Test [1] addresses T1, c-kit kinase (Homo sapiens, UniProt P10721).
T1 construct: The c-kit (or kinase domain thereof) is an active kinase in AlphaScreen; poly-Histidine tag (in-house protein only) (cleaved yes); host or cells: E. coli BL21(DE3)RIL, co-expressed with PTP1B
The test is described as follows: c-Kit biochemical assay, AlphaScreen, 10 μM ATP. The conditions noted are these: c-kit biochemical inhibitory activity; read-out: Biochemical activity (IC50 μM) Kit. The method in brief: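 His-tagged c-Kit expressed in E. coli with co-expressed PTP1B (dephosphorylated), tag removed; 0.1 ng per reaction with biotinylated-peptide substrate in 50 mM HEPES pH 7.2, 5 mM MgCl2, 5 mM MnCl2, 5% DMSO, 10 μM ATP, 1 h at room temperature. Phosphorylation detected by AlphaScreen (streptavidin donor, PY20 acceptor beads); IC50 from 8-point 1:3 dilution series.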
A general note: Alpha assays give light when donor and acceptor beads are brought close together.

Test [2] addresses T2, c-kit mutant D816V (Homo sapiens, UniProt P10721, D816V/DEL694-753).
T2 construct: residues 551-934, kinase insertion domain residues 694-753 deleted; 6x-histidine (N); made in house; host or cells: E. coli Arctic Express (DE3) RIL (Stratagene)
The experiment in a line: c-Kit mutant D816V biochemical assay, AlphaScreen. The conditions noted are these: c-kit D816V biochemical inhibitory activity; read-out: Biochemical activity (IC50 μM) Kit D816V. An outline of the steps:
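Purified His-tagged c-Kit D816V (E. coli-expressed) assayed in 25 mM HEPES pH 7.2 with Mg/Mn, 5% DMSO and 10 μM ATP, 30 min at room temperature, 8-point 1:3 dilutions. Phosphorylation detected by AlphaScreen with streptavidin donor and PY20 acceptor beads; IC50 from signal versus concentration.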

T2 sequence (P10721 with tags, fused parts or gaps DEL694-753/D816V): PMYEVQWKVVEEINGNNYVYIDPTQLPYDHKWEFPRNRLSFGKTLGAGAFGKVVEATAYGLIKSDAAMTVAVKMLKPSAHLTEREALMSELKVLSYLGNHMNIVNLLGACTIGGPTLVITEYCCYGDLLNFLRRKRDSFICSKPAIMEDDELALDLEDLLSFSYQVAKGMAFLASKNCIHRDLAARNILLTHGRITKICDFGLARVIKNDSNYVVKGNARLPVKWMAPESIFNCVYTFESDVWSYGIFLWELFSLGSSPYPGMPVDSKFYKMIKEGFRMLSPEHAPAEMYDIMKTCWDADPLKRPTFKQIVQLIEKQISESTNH
T1 sequence (P10721 26-976): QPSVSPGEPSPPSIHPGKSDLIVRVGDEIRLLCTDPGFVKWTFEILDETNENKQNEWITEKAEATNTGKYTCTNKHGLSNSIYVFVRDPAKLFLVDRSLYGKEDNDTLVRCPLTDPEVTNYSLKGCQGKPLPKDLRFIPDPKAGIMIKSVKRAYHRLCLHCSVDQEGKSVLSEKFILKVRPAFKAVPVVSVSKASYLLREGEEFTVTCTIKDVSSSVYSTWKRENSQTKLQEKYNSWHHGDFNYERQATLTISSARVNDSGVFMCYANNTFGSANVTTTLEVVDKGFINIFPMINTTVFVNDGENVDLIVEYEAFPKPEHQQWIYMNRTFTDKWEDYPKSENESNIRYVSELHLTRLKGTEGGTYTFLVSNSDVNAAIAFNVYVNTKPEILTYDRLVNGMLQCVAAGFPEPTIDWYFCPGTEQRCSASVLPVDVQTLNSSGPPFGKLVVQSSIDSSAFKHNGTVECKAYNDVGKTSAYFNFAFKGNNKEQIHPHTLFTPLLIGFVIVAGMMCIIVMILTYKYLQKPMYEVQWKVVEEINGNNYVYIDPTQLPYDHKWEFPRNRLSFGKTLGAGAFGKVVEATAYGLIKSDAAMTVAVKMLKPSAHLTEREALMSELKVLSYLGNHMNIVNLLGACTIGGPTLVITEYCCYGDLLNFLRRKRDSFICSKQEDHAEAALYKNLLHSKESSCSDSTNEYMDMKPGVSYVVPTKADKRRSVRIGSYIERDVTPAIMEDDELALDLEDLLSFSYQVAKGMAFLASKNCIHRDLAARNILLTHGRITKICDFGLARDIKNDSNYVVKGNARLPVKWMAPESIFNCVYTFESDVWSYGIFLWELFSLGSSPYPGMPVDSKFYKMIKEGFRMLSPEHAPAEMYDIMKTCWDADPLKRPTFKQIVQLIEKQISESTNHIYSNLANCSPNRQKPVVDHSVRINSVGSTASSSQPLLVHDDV

As to `Cc1nc(-c2cccc(NC(=O)NC3CCN(c4ncnc5[nH]ccc45)CC3)c2)no1` [P-0507, 1-[3-(5-methyl-1,2,4-oxadiazol-3-yl)phenyl]-3-[1-(7H-pyrrolo[2,3-d]pyrimidin-4-yl)-4-piperidyl]urea], the IC50 in test [1] and in test [2] was 10 to 200 µM throughout.
Take `O=C(Nc1cccnc1)NC1CCN(c2ncnc3[nH]ccc23)CC1` [P-0508, 1-(3-pyridyl)-3-[1-(7H-pyrrolo[2,3-d]pyrimidin-4-yl)-4-piperidyl]urea]: the IC50 in test [1] and in test [2] was 10 to 200 µM in each case.
Consider `O=C(NCc1cccc(F)c1)NC1CCN(c2ncnc3[nH]ccc23)CC1` [P-0510, 1-[(3-fluorophenyl)methyl]-3-[1-(7H-pyrrolo[2,3-d]pyrimidin-4-yl)-4-piperidyl]urea], for which the 50% inhibitory concentration (IC50) in test [1] and in test [2] was 10 to 200 µM each time.
Regarding `O=C(Nc1cccc(C(F)(F)F)c1)NC1CCN(c2ncnc3[nH]ccc23)CC1` [P-0515, 1-[1-(7H-pyrrolo[2,3-d]pyrimidin-4-yl)-4-piperidyl]-3-[3-(trifluoromethyl)phenyl]urea], the IC50 in test [1] lay within 1 to 10 µM; in test [2], 10 to 200 µM.
On the same counts, the results for `CCc1ccc(S(=O)(=O)NC2CCN(c3ncnc4[nH]ccc34)CC2)cc1` [P-0525, 4-ethyl-N-[1-(7H-pyrrolo[2,3-d]pyrimidin-4-yl)-4-piperidyl]benzenesulfonamide] are 10 to 200 µM and 10 to 200 µM.
With `O=S(=O)(NC1CCN(c2ncnc3[nH]ccc23)CC1)c1cc(F)ccc1F` [P-0539, 2,5-difluoro-N-[1-(7H-pyrrolo[2,3-d]pyrimidin-4-yl)-4-piperidyl]benzenesulfonamide], the half-inhibitory concentration (IC50) in test [1] and in test [2] was 10 to 200 µM in each case.
Turning to `COc1ccc(S(=O)(=O)NC2CCN(c3ncnc4[nH]ccc34)CC2)cc1` [P-0540, 4-methoxy-N-[1-(7H-pyrrolo[2,3-d]pyrimidin-4-yl)-4-piperidyl]benzenesulfonamide], the 50% inhibitory concentration (IC50) in test [1] and in test [2] was 10 to 200 µM throughout.
Turning to `NC1CCN(c2ncnc3[nH]ccc23)CC1` [P-0541, 1-(7H-pyrrolo[2,3-d]pyrimidin-4-yl)piperidin-4-amine], the half-inhibitory concentration (IC50) in test [1] fell in the range of 10 to 200 µM; in test [2] it was 1 to 10 µM.
Regarding `COc1ccc(NC(=O)NC2CCN(c3ncnc4[nH]ccc34)CC2)cc1` [P-0543, 1-(4-methoxyphenyl)-3-[1-(7H-pyrrolo[2,3-d]pyrimidin-4-yl)-4-piperidyl]urea], the half-inhibitory concentration (IC50) in test [1] and in test [2] was 10 to 200 µM each time.
As for `C[C@H](NC(=O)N1CCN(c2ncnc3cc(C4=CCN(C(=O)C5CC5)CC4)sc23)CC1(C)C)c1cccc(Cl)c1` [P-0552, N-[(1S)-1-(3-chlorophenyl)ethyl]-4-[6-[1-(cyclopropanecarbonyl)-3,6-dihydro-2H-pyridin-4-yl]thieno[3,2-d]pyrimidin-4-yl]-2,2-dimethyl-piperazine-1-carboxamide], the 50% inhibitory concentration (IC50) in test [1] and in test [2] was 0.0001 to 1 µM each time.
In the case of `C[C@H](NC(=O)N1CCN(c2ncnc3cc(C4=CCN(S(C)(=O)=O)CC4)sc23)CC1(C)C)c1cccc(Cl)c1` [P-0553, N-[(1S)-1-(3-chlorophenyl)ethyl]-2,2-dimethyl-4-[6-(1-methylsulfonyl-3,6-dihydro-2H-pyridin-4-yl)thieno[3,2-d]pyrimidin-4-yl]piperazine-1-carboxamide], the results for the half-maximal inhibitory concentration (IC50) in test [1] and in test [2] were 1 to 10 µM and 0.0001 to 1 µM, respectively.
On the same counts, the results for `O=C(N1CC=C(c2cc3ncnc(-c4ccc(NS(=O)(=O)C5CC5)cc4)c3s2)CC1)N1CCOCC1` [P-0554, N-[4-[6-[1-(morpholine-4-carbonyl)-3,6-dihydro-2H-pyridin-4-yl]thieno[3,2-d]pyrimidin-4-yl]phenyl]cyclopropanesulfonamide] are 0.0001 to 1 µM and 0.0001 to 1 µM.
Consider `CS(=O)(=O)Nc1ccc(-c2ncnc3cc(C4=CCN(C(=O)N5CCOCC5)CC4)sc23)cc1` [P-0555, N-[4-[6-[1-(morpholine-4-carbonyl)-3,6-dihydro-2H-pyridin-4-yl]thieno[3,2-d]pyrimidin-4-yl]phenyl]methanesulfonamide], for which the IC50 in test [1] and in test [2] was 0.0001 to 1 µM throughout.
In the case of `COc1cc(-c2cc3ncnc(N4CCN(C(=O)N[C@@H](C)c5cccc(Cl)c5)C(C)(C)C4)c3s2)ccn1` [P-0556, N-[(1S)-1-(3-chlorophenyl)ethyl]-4-[6-(2-methoxy-4-pyridyl)thieno[3,2-d]pyrimidin-4-yl]-2,2-dimethyl-piperazine-1-carboxamide], the IC50 lay in the range of 1 to 10 µM in test [1] and 0.0001 to 1 µM in test [2].
On the same counts, the results for `Cc1nc(C)c(-c2cc3ncnc(N4CCN(C(=O)N[C@@H](C)c5cccc(Cl)c5)C(C)(C)C4)c3s2)s1` [P-0557, N-[(1S)-1-(3-chlorophenyl)ethyl]-4-[6-(2,4-dimethylthiazol-5-yl)thieno[3,2-d]pyrimidin-4-yl]-2,2-dimethyl-piperazine-1-carboxamide] are 10 to 200 µM and 0.0001 to 1 µM.
On the same counts, the results for `C[C@H](NC(=O)N1CCN(c2ncnc3cc(N4CCOCC4)sc23)CC1(C)C)c1cccc(Cl)c1` [P-0558, N-[(1S)-1-(3-chlorophenyl)ethyl]-2,2-dimethyl-4-(6-morpholinothieno[3,2-d]pyrimidin-4-yl)piperazine-1-carboxamide] are 1 to 10 µM and 0.0001 to 1 µM.
In the same order, the values of `CC(=N)Nc1ccc(-c2ncnc3cc(C4=CCN(C(=O)N5CCOCC5)CC4)sc23)cc1` [P-0559, N-[4-[6-[1-(morpholine-4-carbonyl)-3,6-dihydro-2H-pyridin-4-yl]thieno[3,2-d]pyrimidin-4-yl]phenyl]acetamidine] are 10 to 200 µM and 0.0001 to 1 µM.
With `COc1cccc([C@H](C)NC(=O)N2CCN(c3ncnc4cc(N5CCOCC5)sc34)CC2(C)C)c1` [P-0560, N-[(1S)-1-(3-methoxyphenyl)ethyl]-2,2-dimethyl-4-(6-morpholinothieno[3,2-d]pyrimidin-4-yl)piperazine-1-carboxamide], the figures for the 50% inhibitory concentration (IC50) in test [1] and in test [2] were 1 to 10 µM and 0.0001 to 1 µM, respectively.
In the same order, the values of `O=C(N1CC=C(c2cc3ncnc(-c4ccc(NS(=O)(=O)c5ccc(F)cc5)cc4)c3s2)CC1)N1CCOCC1` [P-0561, 4-fluoro-N-[4-[6-[1-(morpholine-4-carbonyl)-3,6-dihydro-2H-pyridin-4-yl]thieno[3,2-d]pyrimidin-4-yl]phenyl]benzenesulfonamide] are 0.0001 to 1 µM and 0.0001 to 1 µM.
With `Cc1nn(C)cc1-c1cc2ncnc(N3CCN(C(=O)N[C@@H](C)c4cccc(Cl)c4)C(C)(C)C3)c2s1` [P-0564, N-[(1S)-1-(3-chlorophenyl)ethyl]-4-[6-(1,3-dimethylpyrazol-4-yl)thieno[3,2-d]pyrimidin-4-yl]-2,2-dimethyl-piperazine-1-carboxamide], the half-maximal inhibitory concentration (IC50) in test [1] fell in the range of 1 to 10 µM; in test [2], 0.0001 to 1 µM.
On the same counts, the results for `COc1cccc([C@H](C)NC(=O)N2CC3CCC2CN3c2ncnc3cc(-c4ccc(F)cc4)sc23)c1` (stereo partly drawn) [P-0566, 5-[6-(4-fluorophenyl)thieno[3,2-d]pyrimidin-4-yl]-N-[(1S)-1-(3-methoxyphenyl)ethyl]-2,5-diazabicyclo[2.2.2]octane-2-carboxamide] are 10 to 200 µM and 1 to 10 µM.
Turning to `COc1cccc([C@H](C)NC(=O)N2C3CCC2CN(c2ncnc4cc(-c5ccc(F)cc5)sc24)C3)c1` [P-0567, 3-[6-(4-fluorophenyl)thieno[3,2-d]pyrimidin-4-yl]-N-[(1S)-1-(3-methoxyphenyl)ethyl]-3,8-diazabicyclo[3.2.1]octane-8-carboxamide], the IC50 lay within 10 to 200 µM in test [1] and 0.0001 to 1 µM in test [2].
On the same counts, the results for `CS(=O)(=O)N1CC=C(c2cc3ncnc(N4CCN(C(=O)NCc5ccc(F)cc5)CC4)c3s2)CC1` [P-0568, N-[(4-fluorophenyl)methyl]-4-[6-(1-methylsulfonyl-3,6-dihydro-2H-pyridin-4-yl)thieno[3,2-d]pyrimidin-4-yl]piperazine-1-carboxamide] are 1 to 10 µM and 0.0001 to 1 µM.
On the same counts, the results for `C[C@H](NC(=O)N1CCN(c2ncnc3cc(C4=CC(C)(C)NC(C)(C)C4)sc23)CC1)c1cccc(Cl)c1` [P-0569, N-[(1S)-1-(3-chlorophenyl)ethyl]-4-[6-(2,2,6,6-tetramethyl-1,3-dihydropyridin-4-yl)thieno[3,2-d]pyrimidin-4-yl]piperazine-1-carboxamide] are 10 to 200 µM and 0.0001 to 1 µM.
On the same counts, the results for `O=C(C1CC1)N1CC=C(c2cc3ncnc(-c4ccc(NS(=O)(=O)c5ccc(F)cc5)cc4)c3s2)CC1` [P-0570, N-[4-[6-[1-(cyclopropanecarbonyl)-3,6-dihydro-2H-pyridin-4-yl]thieno[3,2-d]pyrimidin-4-yl]phenyl]-4-fluoro-benzenesulfonamide] are 0.0001 to 1 µM and 0.0001 to 1 µM.
Regarding `O=C(C1CC1)N1CC=C(c2cc3ncnc(-c4ccc(NS(=O)(=O)C5CC5)cc4)c3s2)CC1` [P-0571, N-[4-[6-[1-(cyclopropanecarbonyl)-3,6-dihydro-2H-pyridin-4-yl]thieno[3,2-d]pyrimidin-4-yl]phenyl]cyclopropanesulfonamide], the IC50 in test [1] and in test [2] was 0.0001 to 1 µM in each case.

In general, IC50 refers to the midpoint of a concentration-inhibition curve.
